According to PubChem BioAssay (NCI):
In brackets after ≈: the same amount, converted by molar mass.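 Where inhibition never reached the appropriate level, the endpoint shown equals the highest concentration tested. Otherwise, values were interpolated linearly from a five-concentration, 48-hour dose response in 96-well plates. The concentration for 50% growth inhibition is given as GI50. TGI denotes the concentration required for complete inhibition of growth.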

Legend:
Test in all cases: NCI anticancer screen, dose series, 48 h
[1] = system: 786-0 renal
[2] = system: A498 renal
[3] = system: A549 NSCLC
[4] = system: ACHN renal
[5] = system: BT-549 breast
[6] = system: CAKI-1 renal
[7] = system: CCRF-CEM leukemia
[8] = system: COLO 205 colon
[9] = system: DU-145 prostate
[10] = system: EKVX NSCLC
[11] = system: HCC-2998 colon
[12] = system: HCT-116 colon
[13] = system: HCT-15 colon
[14] = system: HOP-62 NSCLC
[15] = system: HT29 colon
[16] = system: IGROV1 ovarian
[17] = system: K-562 leukemia
[18] = system: KM12 colon
[19] = system: LOX IMVI melanoma
[20] = system: M14 melanoma
[21] = system: MALME-3M melanoma
[22] = system: MCF7 breast
[23] = system: MDA-MB-231 breast
[24] = system: MDA-MB-435
[25] = system: MDA-N
[26] = system: MOLT-4 leukemia
[27] = system: NCI-H226 lung
[28] = system: NCI-H23 lung
[29] = system: NCI-H522 lung
[30] = system: NCI/ADR-RES ovarian
[31] = system: OVCAR-3 ovarian
[32] = system: OVCAR-4 ovarian
[33] = system: OVCAR-5 ovarian
[34] = system: OVCAR-8 ovarian
[35] = system: PC-3 prostate
[36] = system: RPMI-8226 leukemia
[37] = system: RXF 393 renal
[38] = system: SF-268 CNS
[39] = system: SF-295 CNS
[40] = system: SF-539 CNS
[41] = system: SK-MEL-2 melanoma
[42] = system: SK-MEL-28 melanoma
[43] = system: SK-MEL-5 melanoma
[44] = system: SK-OV-3 ovarian
[45] = system: SN12C renal
[46] = system: SNB-19 CNS
[47] = system: SNB-75 CNS
[48] = system: SR leukemia
[49] = system: SW-620 colon
[50] = system: TK-10 renal
[51] = system: U251 CNS
[52] = system: UACC-257 melanoma
[53] = system: UACC-62 melanoma
[54] = system: UO-31 renal
[55] = system: HL-60(TB) leukemia
[56] = system: HS 578T breast
[57] = system: HOP-92 NSCLC
[58] = system: NCI-H460 lung

## COC(=O)C([C@H]1CC[C@H](OCc2ccccc2)[C@@]1(O)COCc1ccccc1)C(C)(O)CCc1ccccc1 (stereo not given in full)
[1]
  TGI: 27.4 µM
[2]
  TGI: 28.6 µM
[3]
  TGI: 27.1 µM
[4]
  TGI: 29.2 µM
[5]
  TGI: 30.8 µM
[6]
  TGI: > 100 µM
[7]
  TGI: 60.2 µM
[8]
  TGI: 25.8 µM
[9]
  TGI: 72.7 µM
[10]
  TGI: 38.2 µM
[11]
  TGI: 33.2 µM
[12]
  TGI: 24.2 µM
[13]
  TGI: 37.4 µM
[14]
  TGI: 29.6 µM
[15]
  TGI: 22.2 µM
[16]
  TGI: 29.3 µM
[17]
  TGI: 35.5 µM
[18]
  TGI: 16.4 µM
[19]
  TGI: 22.8 µM
[20]
  TGI: 22.9 µM
[21]
  TGI: 25.7 µM
[22]
  TGI: 25.3 µM
[23]
  TGI: 26.2 µM
[24]
  TGI: 29.4 µM
[25]
  TGI: 26.6 µM
[26]
  TGI: 19.7 µM
[27]
  TGI: 26.6 µM
[28]
  TGI: 37.8 µM
[29]
  TGI: 26.1 µM
[30]
  TGI: 26.5 µM
[31]
  TGI: 27.2 µM
[32]
  TGI: 43.9 µM
[33]
  TGI: 27 µM
[34]
  TGI: 41.5 µM
[35]
  TGI: 16.3 µM
[36]
  TGI: 43.3 µM
[37]
  TGI: 25.9 µM
[38]
  TGI: 22 µM
[39]
  TGI: 23.3 µM
[40]
  TGI: 29.1 µM
[41]
  TGI: 25.3 µM
[42]
  TGI: 30.1 µM
[43]
  TGI: 27.6 µM
[44]
  TGI: > 100 µM
[45]
  TGI: 16.2 µM
[46]
  TGI: > 100 µM
[47]
  TGI: 19.7 µM
[48]
  TGI: 26.4 µM
[49]
  TGI: 28.9 µM
[50]
  TGI: 39.9 µM
[51]
  TGI: 27.2 µM
[52]
  TGI: 35.1 µM
[53]
  TGI: 26.6 µM
[54]
  TGI: 23.7 µM

## CC(=O)OC1CCC(OC(C)=O)[C@H]2[C@@H]1[C@@H]1S[C@H]2c2ccccc21 (stereo not given in full)
[1]
  GI50: 85.6 µg/mL (≈ 257 µM)
[2]
  GI50: 43.9 µg/mL (≈ 132 µM)
[7]
  GI50: 36.4 µg/mL (≈ 109 µM)
[8]
  GI50: 59.1 µg/mL (≈ 178 µM)
[9]
  GI50: 85.3 µg/mL (≈ 257 µM)
[10]
  GI50: 54.8 µg/mL (≈ 165 µM)
[11]
  GI50: 50.1 µg/mL (≈ 151 µM)
[13]
  GI50: 93.7 µg/mL (≈ 282 µM)
[55]
  GI50: 22 µg/mL (≈ 66.1 µM)
[56]
  GI50: 76.1 µg/mL (≈ 229 µM)
[17]
  GI50: 35.9 µg/mL (≈ 108 µM)
[18]
  GI50: 49 µg/mL (≈ 147 µM)
[19]
  GI50: 80.6 µg/mL (≈ 242 µM)
[20]
  GI50: 27.9 µg/mL (≈ 84 µM)
[21]
  GI50: 62.1 µg/mL (≈ 187 µM)
[24]
  GI50: 21.6 µg/mL (≈ 64.9 µM)
[25]
  GI50: 24.2 µg/mL (≈ 72.8 µM)
[29]
  GI50: 32.5 µg/mL (≈ 97.7 µM)
[30]
  GI50: 99.2 µg/mL (≈ 298 µM)
[32]
  GI50: 31.3 µg/mL (≈ 94.1 µM)
[39]
  GI50: 36 µg/mL (≈ 108 µM)
[42]
  GI50: 97.3 µg/mL (≈ 293 µM)
[44]
  GI50: 4.09 µg/mL (≈ 12.3 µM)
[47]
  GI50: 48.1 µg/mL (≈ 145 µM)
[50]
  GI50: 35.7 µg/mL (≈ 108 µM)
[51]
  GI50: 81.9 µg/mL (≈ 246 µM)
[52]
  GI50: 76.8 µg/mL (≈ 231 µM)
[53]
  GI50: 41.4 µg/mL (≈ 124 µM)

## Nc1ccc2c(c1)Cc1ccccc1-2
[1]
  TGI: > 100 µM
[2]
  TGI: > 100 µM
[3]
  TGI: > 100 µM
[4]
  TGI: > 100 µM
[5]
  TGI: > 100 µM
[6]
  TGI: > 100 µM
[7]
  TGI: > 100 µM
[8]
  TGI: > 100 µM
[10]
  TGI: > 100 µM
[11]
  TGI: > 100 µM
[12]
  TGI: > 100 µM
[13]
  TGI: > 100 µM
[55]
  TGI: > 100 µM
[14]
  TGI: > 100 µM
[57]
  TGI: > 100 µM
[56]
  TGI: > 100 µM
[15]
  TGI: > 100 µM
[16]
  TGI: > 100 µM
[17]
  TGI: > 100 µM
[18]
  TGI: > 100 µM
[19]
  TGI: > 100 µM
[20]
  TGI: > 100 µM
[21]
  TGI: > 100 µM
[22]
  TGI: > 100 µM
[23]
  TGI: > 100 µM
[24]
  TGI: > 100 µM
[25]
  TGI: > 100 µM
[26]
  TGI: > 100 µM
[27]
  TGI: > 100 µM
[28]
  TGI: > 100 µM
[58]
  TGI: > 100 µM
[30]
  TGI: > 100 µM
[31]
  TGI: > 100 µM
[32]
  TGI: > 100 µM
[33]
  TGI: > 100 µM
[34]
  TGI: > 100 µM
[35]
  TGI: > 100 µM
[37]
  TGI: > 100 µM
[39]
  TGI: > 100 µM
[40]
  TGI: > 100 µM
[41]
  TGI: > 100 µM
[42]
  TGI: > 100 µM
[43]
  TGI: > 100 µM
[44]
  TGI: > 100 µM
[45]
  TGI: > 100 µM
[46]
  TGI: > 100 µM
[47]
  TGI: 94.3 µM
[48]
  TGI: > 100 µM
[49]
  TGI: > 100 µM
[50]
  TGI: > 100 µM
[51]
  TGI: > 100 µM
[52]
  TGI: > 100 µM
[53]
  TGI: > 100 µM
[54]
  TGI: > 100 µM

## CN(C)c1ccc(/C=N/N=C2\C(=O)Nc3c(Cl)cc(Cl)cc32)cc1
[1]
  TGI: > 100 µM
[2]
  TGI: > 100 µM
[3]
  TGI: > 100 µM
[4]
  TGI: > 100 µM
[5]
  TGI: > 100 µM
[6]
  TGI: > 100 µM
[7]
  TGI: > 100 µM
[8]
  TGI: > 100 µM
[10]
  TGI: > 100 µM
[11]
  TGI: > 100 µM
[12]
  TGI: > 100 µM
[13]
  TGI: > 100 µM
[55]
  TGI: > 100 µM
[14]
  TGI: > 100 µM
[57]
  TGI: > 100 µM
[56]
  TGI: > 100 µM
[15]
  TGI: > 100 µM
[16]
  TGI: > 100 µM
[17]
  TGI: > 100 µM
[18]
  TGI: 36.4 µM
[19]
  TGI: > 100 µM
[20]
  TGI: > 100 µM
[21]
  TGI: > 100 µM
[22]
  TGI: > 100 µM
[23]
  TGI: > 100 µM
[24]
  TGI: > 100 µM
[25]
  TGI: 33.8 µM
[26]
  TGI: > 100 µM
[27]
  TGI: > 100 µM
[28]
  TGI: > 100 µM
[58]
  TGI: > 100 µM
[30]
  TGI: 89 µM
[31]
  TGI: > 100 µM
[32]
  TGI: > 100 µM
[33]
  TGI: > 100 µM
[34]
  TGI: > 100 µM
[35]
  TGI: > 100 µM
[37]
  TGI: > 100 µM
[39]
  TGI: > 100 µM
[40]
  TGI: > 100 µM
[41]
  TGI: > 100 µM
[42]
  TGI: > 100 µM
[43]
  TGI: > 100 µM
[44]
  TGI: > 100 µM
[45]
  TGI: > 100 µM
[46]
  TGI: > 100 µM
[47]
  TGI: 56.9 µM
[48]
  TGI: 33 µM
[49]
  TGI: > 100 µM
[50]
  TGI: > 100 µM
[51]
  TGI: > 100 µM
[52]
  TGI: > 100 µM
[53]
  TGI: > 100 µM
[54]
  TGI: > 100 µM

## COC(=S)OC1CC(n2cnc3c(=O)[nH]cnc32)OC1CO[Si](C)(C)C(C)(C)C (stereo not given)
[1]
  TGI: > 100 µM
[2]
  TGI: > 100 µM
[3]
  TGI: > 100 µM
[4]
  TGI: > 100 µM
[6]
  TGI: > 100 µM
[7]
  TGI: > 100 µM
[8]
  TGI: > 100 µM
[9]
  TGI: > 100 µM
[10]
  TGI: > 100 µM
[12]
  TGI: > 100 µM
[13]
  TGI: > 100 µM
[55]
  TGI: > 100 µM
[14]
  TGI: > 100 µM
[57]
  TGI: > 100 µM
[56]
  TGI: > 100 µM
[15]
  TGI: > 100 µM
[16]
  TGI: > 100 µM
[17]
  TGI: > 100 µM
[18]
  TGI: > 100 µM
[19]
  TGI: > 100 µM
[20]
  TGI: > 100 µM
[21]
  TGI: > 100 µM
[22]
  TGI: > 100 µM
[23]
  TGI: > 100 µM
[24]
  TGI: > 100 µM
[25]
  TGI: > 100 µM
[26]
  TGI: > 100 µM
[27]
  TGI: > 100 µM
[28]
  TGI: > 100 µM
[58]
  TGI: > 100 µM
[29]
  TGI: > 100 µM
[30]
  TGI: > 100 µM
[31]
  TGI: > 100 µM
[32]
  TGI: > 100 µM
[33]
  TGI: > 100 µM
[34]
  TGI: > 100 µM
[35]
  TGI: > 100 µM
[36]
  TGI: > 100 µM
[37]
  TGI: > 100 µM
[38]
  TGI: > 100 µM
[39]
  TGI: > 100 µM
[40]
  TGI: > 100 µM
[41]
  TGI: > 100 µM
[42]
  TGI: > 100 µM
[43]
  TGI: > 100 µM
[44]
  TGI: > 100 µM
[45]
  TGI: > 100 µM
[46]
  TGI: > 100 µM
[47]
  TGI: > 100 µM
[48]
  TGI: > 100 µM
[49]
  TGI: > 100 µM
[50]
  TGI: > 100 µM
[51]
  TGI: > 100 µM
[52]
  TGI: > 100 µM
[53]
  TGI: > 100 µM
